Legend:
[1] = molecular target: CK1-alpha (Homo sapiens, UniProt P48729); assay: CK1-alpha kinase assay; assay type: biochemical; conditions: 10 μM compound; read-out: CK1-alpha percent of inhibition
Procedure, shortened: (§1)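 Radiometric assay at 10 μM compound: kinase set for 10% ATP turnover, ATP at KmATP plus [γ-33P]ATP 12.5 μCi/ml, substrate at 5-fold over Km. Incubated 1 hour at room temperature, EDTA stop, filter capture and 33P counting.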

[2] = molecular target: MAPK-ERK1 (Homo sapiens, UniProt P27361); assay: MAPK-ERK1 kinase assay; assay type: biochemical; conditions: 10 μM compound; read-out: MAPK-ERK1 percent of inhibition
Sequence of MAPK-ERK1 (P27361 whole entry): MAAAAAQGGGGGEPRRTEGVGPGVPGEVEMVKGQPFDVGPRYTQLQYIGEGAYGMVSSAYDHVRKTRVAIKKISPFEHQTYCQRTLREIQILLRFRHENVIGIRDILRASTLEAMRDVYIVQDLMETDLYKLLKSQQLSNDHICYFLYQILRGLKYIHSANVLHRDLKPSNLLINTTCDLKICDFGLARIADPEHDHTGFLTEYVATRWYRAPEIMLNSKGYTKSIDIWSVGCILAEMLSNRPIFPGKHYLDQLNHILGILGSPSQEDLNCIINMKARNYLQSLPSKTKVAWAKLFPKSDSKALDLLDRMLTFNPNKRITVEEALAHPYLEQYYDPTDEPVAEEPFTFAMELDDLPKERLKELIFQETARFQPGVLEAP
Procedure, shortened: as §1

[3] = molecular target: ROCK2 (Homo sapiens, UniProt O75116); assay: ROCK2 kinase assay; assay type: biochemical; conditions: 10 μM compound; read-out: ROCK2 percent of inhibition
Procedure, shortened: as §1

[4] = molecular target: GSK-3beta (Homo sapiens, UniProt P49841); assay: GSK-3beta kinase assay; assay type: biochemical; conditions: 10 μM compound; read-out: GSK-3beta percent of inhibition
Procedure, shortened: as §1

[5] = molecular target: T1, IKK-beta (Homo sapiens, UniProt O14920); assay: IKK-beta kinase assay; assay type: biochemical; conditions: 10 μM compound; read-out: IKK-beta percent of inhibition
T1 sequence (O14920 1-756): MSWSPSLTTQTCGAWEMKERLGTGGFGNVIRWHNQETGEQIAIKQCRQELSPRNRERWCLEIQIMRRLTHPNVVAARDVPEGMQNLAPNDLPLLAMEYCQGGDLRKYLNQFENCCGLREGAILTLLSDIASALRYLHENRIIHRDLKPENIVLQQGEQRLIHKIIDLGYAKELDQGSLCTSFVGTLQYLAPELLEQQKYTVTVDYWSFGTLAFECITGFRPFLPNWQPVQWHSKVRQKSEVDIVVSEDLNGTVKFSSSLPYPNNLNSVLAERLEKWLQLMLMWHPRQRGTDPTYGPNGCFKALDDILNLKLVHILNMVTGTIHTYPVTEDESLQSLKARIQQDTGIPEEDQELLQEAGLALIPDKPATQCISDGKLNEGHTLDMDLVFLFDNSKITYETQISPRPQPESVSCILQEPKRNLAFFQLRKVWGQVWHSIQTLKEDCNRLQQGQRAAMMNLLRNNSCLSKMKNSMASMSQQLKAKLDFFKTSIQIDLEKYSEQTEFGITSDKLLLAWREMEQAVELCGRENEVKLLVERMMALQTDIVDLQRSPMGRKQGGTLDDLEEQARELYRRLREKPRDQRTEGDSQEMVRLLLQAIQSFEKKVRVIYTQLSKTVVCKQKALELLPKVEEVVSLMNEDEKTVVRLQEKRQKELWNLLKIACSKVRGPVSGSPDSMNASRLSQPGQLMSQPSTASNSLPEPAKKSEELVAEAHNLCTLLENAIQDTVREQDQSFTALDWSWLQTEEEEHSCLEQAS
Procedure, shortened: as §1

[6] = molecular target: Jnk1a1 (Homo sapiens, UniProt P45983); assay: Jnk1a1 kinase assay; assay type: biochemical; conditions: 10 μM compound; read-out: Jnk1a1 percent of inhibition
Procedure, shortened: as §1

[7] = molecular target: AKT1/PKBa (Homo sapiens, UniProt P31749); assay: AKT1/PKBa kinase assay; assay type: biochemical; conditions: 10 μM compound; read-out: AKT1/PKBa percent of inhibition
Procedure, shortened: as §1

[8] = molecular target: EGFR (Homo sapiens, UniProt P00533); assay: EGFR kinase assay (33P-ATP filter plate); assay type: biochemical; conditions: for inhibition at 10 µM: 10 μM compound, read-out: EGFR percent of inhibition; for IC50: EGFR-PTK assay
Procedure, shortened: as §1

[9] = molecular target: SRPK1 (Homo sapiens, UniProt Q96SB4); assay: SRPK1 kinase assay; assay type: biochemical; conditions: 10 μM compound; read-out: SRPK1 percent of inhibition
Procedure, shortened: as §1

[10] = molecular target: cMet (Homo sapiens, UniProt P08581); assay: cMet kinase assay; assay type: biochemical; conditions: 10 μM compound; read-out: cMet percent of inhibition
Procedure, shortened: as §1

[11] = molecular target: P70S6K (Homo sapiens, UniProt P23443); assay: P70S6K kinase assay; assay type: biochemical; conditions: 10 μM compound; read-out: P70S6K percent of inhibition
Procedure, shortened: as §1

[12] = molecular target: InsR (Homo sapiens, UniProt P06213); assay: InsR kinase assay; assay type: biochemical; conditions: 10 μM compound; read-out: InsR percent of inhibition
Sequence of InsR (P06213 28-1382, species assumed): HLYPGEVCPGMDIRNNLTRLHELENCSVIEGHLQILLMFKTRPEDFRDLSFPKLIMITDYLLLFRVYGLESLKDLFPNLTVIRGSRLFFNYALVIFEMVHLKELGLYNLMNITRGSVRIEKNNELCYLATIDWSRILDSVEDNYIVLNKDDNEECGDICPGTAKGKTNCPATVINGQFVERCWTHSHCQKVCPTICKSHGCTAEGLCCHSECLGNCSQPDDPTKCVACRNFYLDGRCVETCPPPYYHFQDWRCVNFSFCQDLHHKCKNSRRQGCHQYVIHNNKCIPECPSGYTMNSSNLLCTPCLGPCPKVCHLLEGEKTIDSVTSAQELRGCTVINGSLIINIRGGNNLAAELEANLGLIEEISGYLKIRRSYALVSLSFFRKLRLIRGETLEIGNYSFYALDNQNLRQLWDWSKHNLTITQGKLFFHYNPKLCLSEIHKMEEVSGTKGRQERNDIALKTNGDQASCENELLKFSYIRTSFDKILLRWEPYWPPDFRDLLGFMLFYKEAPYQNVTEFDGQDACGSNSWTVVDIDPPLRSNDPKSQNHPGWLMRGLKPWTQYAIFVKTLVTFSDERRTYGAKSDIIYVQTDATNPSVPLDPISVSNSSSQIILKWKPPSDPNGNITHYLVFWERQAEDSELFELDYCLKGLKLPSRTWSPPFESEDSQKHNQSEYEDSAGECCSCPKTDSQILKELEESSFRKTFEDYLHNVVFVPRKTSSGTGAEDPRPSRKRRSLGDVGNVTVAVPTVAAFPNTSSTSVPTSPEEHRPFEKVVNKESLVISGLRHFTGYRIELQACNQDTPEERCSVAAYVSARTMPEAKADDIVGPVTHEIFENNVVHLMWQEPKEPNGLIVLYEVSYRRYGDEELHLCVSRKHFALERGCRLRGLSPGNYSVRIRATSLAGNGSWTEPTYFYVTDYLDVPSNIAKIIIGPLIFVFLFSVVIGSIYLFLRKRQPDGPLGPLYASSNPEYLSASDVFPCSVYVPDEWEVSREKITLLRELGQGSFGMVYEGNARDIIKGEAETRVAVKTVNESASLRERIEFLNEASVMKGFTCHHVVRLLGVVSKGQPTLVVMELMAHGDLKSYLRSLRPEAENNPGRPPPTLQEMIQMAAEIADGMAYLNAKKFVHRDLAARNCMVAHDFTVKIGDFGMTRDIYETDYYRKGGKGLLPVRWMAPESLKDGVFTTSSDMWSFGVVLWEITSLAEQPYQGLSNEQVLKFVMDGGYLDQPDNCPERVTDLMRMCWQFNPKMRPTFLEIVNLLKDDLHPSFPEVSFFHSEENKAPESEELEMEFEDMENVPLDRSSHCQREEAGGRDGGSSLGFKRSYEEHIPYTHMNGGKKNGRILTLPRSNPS
Procedure, shortened: as §1

[13] = molecular target: PDGFR-beta (Homo sapiens, UniProt P09619); assay: PDGFR-beta kinase assay; assay type: biochemical; conditions: 10 μM compound; read-out: PDGFR-beta percent of inhibition
Procedure, shortened: as §1

[14] = molecular target: c-Raf (Homo sapiens, UniProt P04049); assay: c-Raf kinase assay; assay type: biochemical; conditions: 10 μM compound; read-out: c-Raf percent of inhibition
Procedure, shortened: as §1

[15] = molecular target: CDK2/CycA (Homo sapiens, UniProt P24941); assay: CDK2/CycA kinase assay; assay type: biochemical; conditions: 10 μM compound; read-out: CDK2/CycA percent of inhibition
Procedure, shortened: as §1

[16] = molecular target: Abl (Homo sapiens, UniProt P00519); assay: Abl kinase assay; assay type: biochemical; conditions: 10 μM compound; read-out: Abl percent of inhibition
Procedure, shortened: as §1

[17] = molecular target: c-Src (Homo sapiens, UniProt P12931); assay: c-Src kinase assay; assay type: biochemical; conditions: 10 μM compound; read-out: c-Src percent of inhibition
Sequence of c-Src (P12931 whole entry, species assumed): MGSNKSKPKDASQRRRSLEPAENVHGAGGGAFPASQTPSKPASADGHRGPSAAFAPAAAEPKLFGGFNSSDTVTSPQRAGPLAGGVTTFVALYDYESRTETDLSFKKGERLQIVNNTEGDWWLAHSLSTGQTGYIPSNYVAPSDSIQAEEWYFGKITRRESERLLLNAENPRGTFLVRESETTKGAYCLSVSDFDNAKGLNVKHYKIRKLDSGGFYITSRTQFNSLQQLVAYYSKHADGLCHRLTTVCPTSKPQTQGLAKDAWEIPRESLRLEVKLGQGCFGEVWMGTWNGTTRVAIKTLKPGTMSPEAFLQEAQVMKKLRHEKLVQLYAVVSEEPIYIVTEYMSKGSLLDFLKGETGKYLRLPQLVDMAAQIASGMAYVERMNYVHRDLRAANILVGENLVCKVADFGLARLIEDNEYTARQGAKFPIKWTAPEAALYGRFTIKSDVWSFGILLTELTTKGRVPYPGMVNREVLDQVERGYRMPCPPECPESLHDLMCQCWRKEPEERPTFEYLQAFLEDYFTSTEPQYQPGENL
Procedure, shortened: as §1

[18] = molecular target: P56Lck (Homo sapiens, UniProt P06239); assay: P56Lck kinase assay; assay type: biochemical; conditions: 10 μM compound; read-out: P56Lck percent of inhibition
Sequence of P56Lck (P06239 whole entry, species assumed): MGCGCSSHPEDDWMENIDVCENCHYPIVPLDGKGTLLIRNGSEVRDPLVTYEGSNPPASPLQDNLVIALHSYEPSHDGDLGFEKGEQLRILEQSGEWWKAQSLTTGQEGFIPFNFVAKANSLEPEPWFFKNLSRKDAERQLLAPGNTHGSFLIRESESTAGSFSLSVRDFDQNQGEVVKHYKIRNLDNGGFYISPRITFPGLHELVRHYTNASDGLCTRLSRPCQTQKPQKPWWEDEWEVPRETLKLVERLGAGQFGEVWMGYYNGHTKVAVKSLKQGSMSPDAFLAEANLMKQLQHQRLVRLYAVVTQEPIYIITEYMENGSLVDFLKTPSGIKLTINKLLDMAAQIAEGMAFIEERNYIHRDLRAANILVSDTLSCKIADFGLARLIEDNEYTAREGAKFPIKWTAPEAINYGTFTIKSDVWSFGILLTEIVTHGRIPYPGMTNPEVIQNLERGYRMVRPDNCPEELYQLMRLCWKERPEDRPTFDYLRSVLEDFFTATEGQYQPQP
Procedure, shortened: as §1

[19] = molecular target: Kit (Homo sapiens, UniProt P10721); assay: Kit kinase assay; assay type: biochemical; conditions: 10 μM compound; read-out: Kit percent of inhibition
Sequence of Kit (P10721 26-976, species assumed): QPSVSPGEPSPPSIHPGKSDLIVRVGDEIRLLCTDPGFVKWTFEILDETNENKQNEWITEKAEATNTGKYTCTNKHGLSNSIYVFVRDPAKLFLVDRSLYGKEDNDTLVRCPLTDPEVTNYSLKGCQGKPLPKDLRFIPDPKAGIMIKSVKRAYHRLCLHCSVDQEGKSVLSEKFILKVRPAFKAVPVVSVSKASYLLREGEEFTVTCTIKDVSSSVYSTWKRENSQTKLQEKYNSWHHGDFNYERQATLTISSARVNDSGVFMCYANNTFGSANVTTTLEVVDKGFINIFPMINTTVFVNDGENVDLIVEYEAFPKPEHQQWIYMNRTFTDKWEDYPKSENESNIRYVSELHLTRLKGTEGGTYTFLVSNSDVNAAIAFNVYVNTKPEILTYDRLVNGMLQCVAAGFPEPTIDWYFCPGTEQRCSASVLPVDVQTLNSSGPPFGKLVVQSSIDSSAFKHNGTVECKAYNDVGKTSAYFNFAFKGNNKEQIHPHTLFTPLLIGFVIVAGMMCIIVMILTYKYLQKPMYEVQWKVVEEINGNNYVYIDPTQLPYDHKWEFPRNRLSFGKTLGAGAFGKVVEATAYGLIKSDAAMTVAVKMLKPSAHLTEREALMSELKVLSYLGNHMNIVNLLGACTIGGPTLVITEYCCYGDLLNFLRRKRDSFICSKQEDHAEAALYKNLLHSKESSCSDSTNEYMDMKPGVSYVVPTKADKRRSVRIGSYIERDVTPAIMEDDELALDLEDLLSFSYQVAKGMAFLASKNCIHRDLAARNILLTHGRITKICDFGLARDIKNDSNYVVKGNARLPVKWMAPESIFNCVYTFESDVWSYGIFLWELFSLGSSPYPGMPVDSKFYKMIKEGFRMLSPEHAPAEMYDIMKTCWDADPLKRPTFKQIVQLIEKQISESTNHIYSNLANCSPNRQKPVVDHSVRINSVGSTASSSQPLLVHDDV
Procedure, shortened: as §1

[20] = molecular target: RSK1 (Homo sapiens, UniProt Q15418); assay: RSK1 kinase assay; assay type: biochemical; conditions: 10 μM compound; read-out: RSK1 percent of inhibition
Sequence of RSK1 (Q15418 whole entry, species assumed): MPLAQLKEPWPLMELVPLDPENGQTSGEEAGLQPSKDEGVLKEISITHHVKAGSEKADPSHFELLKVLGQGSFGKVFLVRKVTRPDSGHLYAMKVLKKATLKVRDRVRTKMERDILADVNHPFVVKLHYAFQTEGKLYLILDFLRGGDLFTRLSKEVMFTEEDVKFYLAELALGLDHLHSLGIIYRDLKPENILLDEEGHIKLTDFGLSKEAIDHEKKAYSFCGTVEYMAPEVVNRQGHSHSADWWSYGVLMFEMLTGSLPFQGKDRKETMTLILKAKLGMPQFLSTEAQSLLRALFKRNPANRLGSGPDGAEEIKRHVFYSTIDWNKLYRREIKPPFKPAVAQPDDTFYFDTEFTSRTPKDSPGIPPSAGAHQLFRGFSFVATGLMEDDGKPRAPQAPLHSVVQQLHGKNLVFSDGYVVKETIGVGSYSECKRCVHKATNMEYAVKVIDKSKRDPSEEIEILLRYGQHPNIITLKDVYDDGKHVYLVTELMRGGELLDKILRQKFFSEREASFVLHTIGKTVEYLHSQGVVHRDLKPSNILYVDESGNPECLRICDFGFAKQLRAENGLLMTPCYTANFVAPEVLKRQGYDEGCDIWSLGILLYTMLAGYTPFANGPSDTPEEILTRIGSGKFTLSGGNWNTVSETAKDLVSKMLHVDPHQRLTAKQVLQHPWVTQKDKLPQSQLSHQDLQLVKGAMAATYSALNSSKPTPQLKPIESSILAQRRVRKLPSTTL
Procedure, shortened: as §1

Sequence of CK1-alpha (P48729 whole entry): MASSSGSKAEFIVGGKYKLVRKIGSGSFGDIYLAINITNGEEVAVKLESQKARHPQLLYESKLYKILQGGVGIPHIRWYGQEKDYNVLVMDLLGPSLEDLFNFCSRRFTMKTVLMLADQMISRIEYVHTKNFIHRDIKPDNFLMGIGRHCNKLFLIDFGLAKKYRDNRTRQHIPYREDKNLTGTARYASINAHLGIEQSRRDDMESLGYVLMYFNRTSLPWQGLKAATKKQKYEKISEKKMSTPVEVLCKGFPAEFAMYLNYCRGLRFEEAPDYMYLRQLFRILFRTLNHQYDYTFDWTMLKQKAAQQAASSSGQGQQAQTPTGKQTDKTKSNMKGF

SMILES	inhibition at 10 µM [1] [%]	inhibition at 10 µM [2] [%]	inhibition at 10 µM [3] [%]	inhibition at 10 µM [4] [%]	inhibition at 10 µM [5] [%]	inhibition at 10 µM [6] [%]	melting point [°C]	inhibition at 10 µM [7] [%]	inhibition at 10 µM [8] [%]	inhibition at 10 µM [9] [%]	inhibition at 10 µM [10] [%]	inhibition at 10 µM [11] [%]	inhibition at 10 µM [12] [%]	inhibition at 10 µM [13] [%]	inhibition at 10 µM [14] [%]	inhibition at 10 µM [15] [%]	inhibition at 10 µM [16] [%]	inhibition at 10 µM [17] [%]	inhibition at 10 µM [18] [%]	inhibition at 10 µM [19] [%]	further results
Oc1cccc(Nc2nc(C3CC3)nc3sc4ccccc4c23)c1 [Compound 19, 3-(2-Cyclopropyl-benzo[4,5]thieno[2,3-d]pyrimidin-4-ylamino)-phenol]	9	2	7	7	12	-2	222	-5	54	3	-12	3	11	-1	-4	-12	3	11	3	3	inhibition at 10 µM [20]: -11%
COc1cccc(Nc2nc(C3CC3)nc3sc4ccccc4c23)c1 [Compound 20, (2-Cyclopropyl-benzo[4,5]thieno[2,3-d]pyrimidin-4-yl)-(3-methoxy-phenyl)-amine]	3	21	0	0	9	-5	198	-2	46	18	-2	9	-12	-1	9	4	7	23	0	8	inhibition at 10 µM [20]: 7%
Fc1cccc(Nc2ncnc3sc4ccccc4c23)c1 [Compound 21, Benzo[4,5]thieno[2,3-d]pyrimidin-4-yl-(3-fluoro-phenyl)-amine]	0	1	4	3	2	-2	171	3	98	8	1	7	7	-3	-2	-10	-4	3	-9	-4	IC50 [8]: 26.9 nM; inhibition at 10 µM [20]: 1%
Clc1cccc(Nc2ncnc3sc4ccccc4c23)c1 [Compound 22, Benzo[4,5]thieno[2,3-d]pyrimidin-4-yl-(3-chloro-phenyl)-amine]	-2	5	4	5	11	0	168	-7	98	6	5	5	18	-8	-6	-6	8	9	11	1	inhibition at 10 µM [20]: -2%
Brc1cccc(Nc2ncnc3sc4ccccc4c23)c1 [Compound 23, Benzo[4,5]thieno[2,3-d]pyrimidin-4-yl-(3-bromo-phenyl)-amine]	7	8	2	-3	-5	-10	160	9	99	6	4	-1	4	10	3	12	-10	7	4	6	IC50 [8]: 8.08 nM; inhibition at 10 µM [20]: -4%
